# Results taken from PMC11096368, “Transcriptomic signature, bioactivity and safety of a non-hepatotoxic analgesic generating AM404 in the midbrain PAG region” (Scientific Reports, 2024).
# Assay: LC–MS/MS detection of D10-SRP-001 and AM404 in the periaqueductal gray (PAG)
# Type: in vivo, rats
# Conditions: 30 min after IP injection, LC/MS–MS
# Method: Next, we sought to define the uptake of SRP-001 in the nociception area of the brain, the midbrain’s periaqueductal (PAG) area[42],[43]. Thirty min following ip-SRP-001 administration (32 mg/kg), the PAG was harvested and analyzed by LC/MS–MS. D10-SRP-001 was used to match the fragmentation pattern while monitoring analytes.
# Deuterated compound D10-SRP-001 was synthesized by Olon Ricerca Bioscience (Concord, OH), and purity was determined to be > 99.9% by HPLC. This was used as pure analytical standard for detection of SRP-001 using an LC–MS/MS method. Similarly, pure analytical standard of AM404 (10 ng/mL) obtained from Cayman Chemical (Ann Arbor, MI) was used to characterize the full fragmentation pattern of AM404. […] Thirty min post-injection, the animals were sacrificed (same as in the CFA/von Frey model), their brains harvested, and the midbrain periaqueductal gray (PAG) region excised. SRP-001 or AM404 were extracted from the PAG using a liquid–liquid extraction method using 1:1 MeOH:H2O for LC–MS/MS and were loaded onto a liquid chromatography-tandem mass spectrophotometer for analysis. The mass spectrophotometer was operated in multiple reaction monitoring (MRM) mode using positive ion electrospray. D10-SRP-001 was detected by monitoring the m/z transition 416 → 186. AM404 was detected by monitoring the m/z transition 396 → 287.
compound,measurement,value
[2H]C([2H])([2H])C([2H])([2H])N(C(=O)c1ccccc1S(=O)(=O)NCC(=O)Nc1ccc(O)cc1)C([2H])([2H])C([2H])([2H])[2H] [D10-SRP-001],Detection in rat brain,detected in the brain
